Measured values from patent publication US12370167B2, “Blood-brain barrier permeability regulator and use thereof” (ZHEJIANG UNIVERSITY, priority 2019, dated 2025).

Key:
U87 MG glioma cells = assay: Cytotoxicity on U87 MG glioma cells, tetrazolium blue colorimetric method; format: cell-based; settings: paclitaxel 0.5 μg/mL, siRNA 100 nM, 48 hours
Procedure: FIG. 1: In vitro cell inhibition rate against U87 MG glioma cells of the Angiopep-2-modified glycolipid nano-delivery system. 200 μL suspensions of well-grown U87 MG glioma cells were inoculated into a 96-well plate at a density of 5×10^3/well. After adherent growth of the cells, an Angiopep-2-modified glycolipid nano-delivery system was added, with paclitaxel at a concentration of 0.5 μg/mL and the siRNA at a concentration of 100 nM. The untreated cells were used as a blank control. The cell growth inhibition rate was measure with a tetrazolium blue colorimetric method (n=3).
U87 MG glioma cells were used as the model cell to assess the growth inhibitory effect of the Angiopep-2-modified glycolipid nano-delivery system on tumor cells with a tetrazolium blue colorimetric method. The Angiopep-2-modified glycolipid nano-delivery system was obtained according to the procedures as described in the above sections of 1 and 2. 200 μL suspensions of well-grown U87 MG cells were inoculated into a 96-well plate at a density of 5×10^3/well, and were incubated at 37° C. and 5% CO2 until the cells adhere. The Angiopep-2-modified glycolipid nano-delivery system was added, with paclitaxel at a concentration of […] and the siRNA at a concentration of 100 nM. The untreated cells were used as a blank control. […] Absorbance at 570 nm was measured with a microplate reader. […]

[1] = system: VEGF mRNA in U87 MG cells; assay: Down-regulation of tumor cell VEGF mRNA expression, qt-PCR; format: cell-based; settings: paclitaxel 0.5 μg/mL, siRNA 100 nM, 48 hours, ΔΔCt method, n=3
Procedure: FIG. 2: In vitro down-regulation of expression of U87 MG cell VEGF mRNA by the Angiopep-2-modified glycolipid nano-delivery system. 2 mL suspensions of well-grown U87 MG glioma cells were inoculated into a 6-well plate at a density of 4×10^5/well. After adherent growth of the cells, an Angiopep-2-modified glycolipid nano-delivery system was added, with paclitaxel at a concentration of 0.5 μg/mL and the siRNA at a concentration of 100 nM. The incubation was carried out for 48 hours. An untreated group was used as the blank control. The RNA in the cells was extracted with TRIzol. The relative expression level of tumor cell VEGF mRNA was measure with qt-PCR and calculated with a ΔΔCt method (n=3).
The Angiopep-2-modified glycolipid nano-delivery system was obtained according to the procedures as described in the above sections of 1 and 2. 2.0 mL suspensions of well-grown U87 MG cells were inoculated into a 6-well plate at a density of 4×10^5/well, and were incubated at 37° C. and 5% CO2 until the cells adhere. The Angiopep-2-modified glycolipid nano-delivery system was added, with paclitaxel at a concentration of 0.5 μg/mL and the siRNA at a concentration of 100 nM. The incubation was carried out for 48 hours. The untreated cells were used as a blank control. Each of the group was repeated 3 times. The tumor cell VEGF expression level was measured with qt-PCR.

| Compound | inhibition at 0.5 µg/mL (U87 MG glioma cells; Homo sapiens, U-87 MG, n=3, read-out: cell inhibition rate) [%] | expression level of VEGF mRNA (relative) [1] [%] | cell inhibition rate (U87 MG glioma cells; n=3) [%] |
| --- | --- | --- | --- |
| CC(=O)O[C@H]1C(=O)[C@@]2(C)[C@H]([C@H](OC(=O)c3ccccc3)[C@]3(O)C[C@H](OC(=O)[C@H](O)[C@@H](NC(=O)c4ccccc4)c4ccccc4)C(C)=C1C3(C)C)[C@]1(OC(C)=O)CO[C@@H]1C[C@@H]2O [paclitaxel] | 18.7 ± 5.4 | 78.5 | – |
| siRNA: siRNA, sense strand 5′-GUCUAUCAGCGCAGCUACUTT-3′ (SEQ ID NO: 1), antisense strand 5′-AGUAGCUGCGCUGAUAGACTT-3′ (SEQ ID NO: 2) (sense GUCUAUCAGCGCAGCUACUNN; antisense AGUAGCUGCGCUGAUAGACNN; listed as RNA, chemistry not given here) | – | 92.9 | 5.5±0.5 |
